According to patent US20130165417A1, “METHODS AND COMPOSITIONS FOR TREATING ACE2-RELATED DISORDERS” (UNIVERSITY OF FLORIDA RESEARCH FOUNDATION, priority 2010, published 2013):
“Also recorded” adds a separate entry of the source.

Experiments:
[1] = molecular target: T1, ACE2 (Homo sapiens, UniProt Q9BYF1); conditions: Donoghue et al. 2000, Tipnis et al. 2000; cited from earlier work
Target sequence in this assay (Q9BYF1 18-805): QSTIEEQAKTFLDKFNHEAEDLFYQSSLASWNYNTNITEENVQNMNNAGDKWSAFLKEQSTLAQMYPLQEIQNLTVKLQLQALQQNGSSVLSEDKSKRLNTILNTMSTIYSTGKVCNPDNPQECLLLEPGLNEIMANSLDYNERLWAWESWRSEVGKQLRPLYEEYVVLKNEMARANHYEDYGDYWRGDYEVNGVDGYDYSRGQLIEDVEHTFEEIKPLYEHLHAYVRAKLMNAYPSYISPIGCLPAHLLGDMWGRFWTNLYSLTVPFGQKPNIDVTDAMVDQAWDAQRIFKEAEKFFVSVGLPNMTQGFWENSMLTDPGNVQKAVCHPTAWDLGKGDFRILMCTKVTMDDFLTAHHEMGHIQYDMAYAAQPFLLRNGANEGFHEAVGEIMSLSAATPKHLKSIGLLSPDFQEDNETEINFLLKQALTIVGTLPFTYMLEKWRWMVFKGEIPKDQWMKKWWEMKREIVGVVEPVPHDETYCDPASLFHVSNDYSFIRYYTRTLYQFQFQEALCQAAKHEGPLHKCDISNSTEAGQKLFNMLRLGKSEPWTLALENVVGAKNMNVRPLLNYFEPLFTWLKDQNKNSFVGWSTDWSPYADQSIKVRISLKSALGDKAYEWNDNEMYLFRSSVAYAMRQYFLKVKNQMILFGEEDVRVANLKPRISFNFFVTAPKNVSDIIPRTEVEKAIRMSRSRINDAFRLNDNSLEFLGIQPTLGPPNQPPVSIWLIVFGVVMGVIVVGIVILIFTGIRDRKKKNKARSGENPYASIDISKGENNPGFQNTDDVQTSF

[2] = tested on: spontaneously hypertensive rats (SHRs); assay: Direct blood pressure and heart rate measurement after IV bolus, SHRs; format: in vivo, rat
Procedure: (§1) Male Wistar-Kyoto (WKY) rats and spontaneously hypertensive rats (SHRs) were purchased from Charles River Laboratories (Wilmington, Mass., USA). All procedures were performed in conformity with approved Institutional Animal Care and Use Committee protocols and University of Florida regulations.
(§2) Cannulation of the animals (WKY rats and SHRs) was performed 24 h prior to the start of the drug administration and direct blood pressure (BP) measurement. Animals were anesthetized with a mixture of ketamine, xylazine, and acepromazine (30, 6, and 1 mg/kg, respectively). The two types of the cannulae used were: 1) a polyethylene cannula (PE-50, Clay Adams) introduced into the carotid artery for direct BP measurements and 2) a silicone elastomer cannula (Helix Medical) introduced into the descending jugular vein for acute intravenous (IV) bolus injections of the drug. Both cannulae were filled with heparin saline (40 U/mL, Sigma), and sealed with stylets. The IV drug administration of diminazene aceturate (DIZE) (LKT laboratories, St. Paul, Minn., USA) and the dose-response curves in WKYs and SHRs were obtained in awake, freely moving animals after a 24 h recovery period. Doses of diminazene aceturate (DIZE) (0.04, […], 0.6, 1.25, 2.5, 5 and 10 mg/kg) were administered as an IV bolus via the jugular cannula, and BP data recording was interfaced by a PowerLab (ADlnstruments) signal transduction unit. The data analysis was done using the Chart program (PowerLab system).

[3] = molecular target: T1, ACE2; assay: ACE2 activity assay with fluorogenic peptide substrate; format: biochemical; set-up: purchased R&D Systems, Minneapolis, Minn; 933-ZN-10
Procedure: (§3) Recombinant ACE and ACE2 are obtained in purified form from R&D Systems, Minneapolis, Minn. (catalog ID: 929-ZN-10 and 933-ZN-10, respectively). Substrates for ACE (fluorogenic peptide V, Mca-[…](Dnp)-OH, catalog ID: ES005), and for ACE2 (fluorogenic peptide VI, Mca-YVADAPK(Dnp)-OH, catalog ID: ES007) are obtained from R&D systems. Dry compounds are resuspended in 100% DMSO to prepare 100 mM stock solutions, according to the amount of compound and its molecular weight. Gentle heating to 60-80° C. is carried out to assist their solubilization. Compounds are further diluted to 50 mM stocks if clearly difficult to dissolve.
(§4) Activity of ACE and ACE2 are measured with a Spectra Max Gemini EM Florescence Reader (Molecular Devices). The enzyme removes the c-terminal dinitrophenyl moiety that quenches the inherent fluorescence of its 7-methoxycoumain group, resulting in an increase in fluorescence in the presence of enzyme activity. Fluorescence is measured with excitation and emission spectra of 328 nm and 392 nm, respectively. Reaction mixtures are prepared in 100 μl volumes and different concentrations of compound are tested against 10 μM substrate. 10 nM enzyme in 100 mM NaCl, 75 mM Tris, 0.5 μM ZnCl2, at pH 7.4. Samples are read every 15-20 seconds for at least 30 minutes immediately after the addition of fluorogenic peptide substrate at 37° C. […]
Target sequence in this assay (Q9BYF1 18-740 limits assumed): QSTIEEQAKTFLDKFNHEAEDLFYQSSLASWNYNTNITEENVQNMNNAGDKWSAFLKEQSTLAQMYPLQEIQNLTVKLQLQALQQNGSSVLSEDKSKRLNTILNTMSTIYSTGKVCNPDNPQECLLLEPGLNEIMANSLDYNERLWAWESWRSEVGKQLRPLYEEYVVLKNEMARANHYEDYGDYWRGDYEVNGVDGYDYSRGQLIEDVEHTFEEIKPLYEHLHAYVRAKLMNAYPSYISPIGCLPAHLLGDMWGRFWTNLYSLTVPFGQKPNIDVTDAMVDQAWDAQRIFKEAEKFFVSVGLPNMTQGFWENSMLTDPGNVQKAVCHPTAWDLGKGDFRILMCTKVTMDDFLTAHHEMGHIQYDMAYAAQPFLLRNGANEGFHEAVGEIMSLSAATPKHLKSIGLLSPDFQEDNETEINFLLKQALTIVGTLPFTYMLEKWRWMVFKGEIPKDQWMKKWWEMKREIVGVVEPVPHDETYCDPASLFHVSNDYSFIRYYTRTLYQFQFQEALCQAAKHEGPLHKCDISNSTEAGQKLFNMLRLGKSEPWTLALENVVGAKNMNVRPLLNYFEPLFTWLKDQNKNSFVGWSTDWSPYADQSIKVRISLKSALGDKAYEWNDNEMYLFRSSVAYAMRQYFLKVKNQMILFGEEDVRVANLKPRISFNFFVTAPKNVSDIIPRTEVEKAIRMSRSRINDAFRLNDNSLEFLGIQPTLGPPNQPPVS

[4] = molecular target: T2, Recombinant ACE (Homo sapiens, UniProt P12821); assay: ACE activity assay with fluorogenic peptide substrate; format: biochemical; conditions: FIG. 2
T2 construct: purchased R&D Systems, Minneapolis, Minn; 929-ZN-10
T2 sequence (P12821 30-1306): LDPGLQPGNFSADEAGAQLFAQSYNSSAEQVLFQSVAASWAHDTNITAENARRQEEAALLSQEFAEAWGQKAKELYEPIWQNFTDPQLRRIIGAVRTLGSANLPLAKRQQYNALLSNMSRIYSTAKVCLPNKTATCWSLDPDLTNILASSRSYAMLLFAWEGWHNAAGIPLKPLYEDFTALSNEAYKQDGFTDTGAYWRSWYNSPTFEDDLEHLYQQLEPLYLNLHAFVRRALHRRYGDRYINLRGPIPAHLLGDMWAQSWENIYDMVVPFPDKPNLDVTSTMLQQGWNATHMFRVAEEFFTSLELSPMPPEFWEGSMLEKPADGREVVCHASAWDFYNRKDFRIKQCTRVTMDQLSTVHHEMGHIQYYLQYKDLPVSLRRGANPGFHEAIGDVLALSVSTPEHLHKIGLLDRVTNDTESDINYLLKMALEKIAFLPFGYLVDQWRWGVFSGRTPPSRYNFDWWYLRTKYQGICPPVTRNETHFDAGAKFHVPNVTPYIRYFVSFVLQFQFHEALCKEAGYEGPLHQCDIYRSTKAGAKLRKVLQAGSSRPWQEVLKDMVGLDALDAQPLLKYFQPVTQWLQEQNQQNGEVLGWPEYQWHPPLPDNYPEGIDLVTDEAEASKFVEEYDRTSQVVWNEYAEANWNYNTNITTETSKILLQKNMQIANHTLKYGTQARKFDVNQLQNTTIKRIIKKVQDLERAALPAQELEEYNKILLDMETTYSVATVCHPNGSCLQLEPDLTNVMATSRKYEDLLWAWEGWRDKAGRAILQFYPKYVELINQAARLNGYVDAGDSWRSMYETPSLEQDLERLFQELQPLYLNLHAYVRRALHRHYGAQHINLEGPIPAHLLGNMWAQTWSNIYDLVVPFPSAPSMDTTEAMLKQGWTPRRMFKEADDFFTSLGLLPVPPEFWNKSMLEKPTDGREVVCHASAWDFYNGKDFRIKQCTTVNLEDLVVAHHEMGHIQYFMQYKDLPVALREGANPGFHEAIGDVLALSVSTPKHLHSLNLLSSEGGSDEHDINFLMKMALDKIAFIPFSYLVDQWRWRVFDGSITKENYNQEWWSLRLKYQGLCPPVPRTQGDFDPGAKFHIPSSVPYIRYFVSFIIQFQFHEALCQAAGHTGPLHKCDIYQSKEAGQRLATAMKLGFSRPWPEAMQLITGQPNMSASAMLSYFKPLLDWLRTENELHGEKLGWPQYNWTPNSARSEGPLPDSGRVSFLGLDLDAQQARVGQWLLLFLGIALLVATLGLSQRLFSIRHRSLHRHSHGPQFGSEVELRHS
Procedure: as §3, §4

[5] = tested on: Endothelial progenitor cells harvested from pulmonary hypertensive patients; assay: Function of endothelial progenitor cells from pulmonary hypertensive patients; format: cell-based, human
Text: Another important finding is the effect of DIZE on stem cell function. Endothelial progenitor cells harvested from pulmonary hypertensive patients are dysfunctional and have decreased ability to repair vascular damage induced by the disease.

[6] = tested on: myocardial infarction; assay: Myocardial infarction model of cardiac disease; format: in vivo
[7] = tested on: monocrotaline (MCT) treated rats; assay: Monocrotaline (MCT) treated rats, pulmonary hypertension; format: in vivo, rat
[8] = tested on: Wistar Kyoto rats (WKYs); assay: Direct blood pressure and heart rate measurement after IV bolus, WKY rats; format: in vivo, rat
Procedure: as §1, §2

[9] = tested on: models of pulmonary hypertension; assay: Two models of pulmonary hypertension; format: in vivo

C[C@H](CS)C(=O)N1CCC[C@H]1C(=O)O [captopril]
effect on activity of ACE2 [1]: do not significantly affect

N=C(N)c1ccc(N=NNc2ccc(C(=N)N)cc2)cc1 [DIZE, 4,4′-(1-Triazene-1,3-diyl)bis(benzenecarboximidamide)]
effect on heart rate ([2]; SHR, acute IV bolus): does not affect the heart rate
reduction of mean arterial pressure (MAP) ([2]; SHRs, 5 mg/kg intravenous, n=6): 85±11 mmHg
change in mean arterial pressure (MAP) ([2]; SHRs, intravenous administration, result in words): transient and dose dependent decrease; also recorded: greater reduction in blood pressure in SHRs compared to WKY control rats
maximal increase in ACE2 activity (Vmax) ([3]; observed with 50 μM): 2.3 fold
effect on ACE2 activity ([3]; result in words): dose-dependent increase in ACE2 activity; also recorded: enhances specifically the ACE2 enzyme activity
effect on ACE activity [4]: increases ACE2 but not ACE activity
endothelial progenitor cell dysfunction (ability to repair vascular damage) [5]: significantly improves this dysfunction
MI-induced cardiac dysfunctions ([6]; FIG. 3): attenuates
cardiac function ([6]; pretreatment): significantly improves cardiac function
development of the disorder ([6]; pretreatment): completely prevents the development of these disorders
infarct area ([6]; pretreatment): reduces infarct area
MCT-induced right ventricular fibrosis ([7]; FIG. 6): causes reversal
Right Ventricular Systolic Pressure (RVSP) and Right Ventricular Hypertrophy (RVH), prevention ([7]; MCT treated rats, FIG. 4): prevents increase
RVSP and RVH, reversal ([7]; MCT-treated rats, FIG. 5): reverses increases
reduction of mean arterial pressure (MAP) ([8]; WKY rats, 5 mg/kg intravenous, n=6): 50±9 mmHg
effect on heart rate ([8]; WKY, acute IV bolus): does not affect the heart rate
change in mean arterial pressure (MAP) ([8]; WKYs, intravenous administration, result in words): transient and dose dependent decrease
progression of pathophysiology ([9]; administered after the development of pulmonary hypertension): arrested
development of the disorder ([9]; pretreatment): completely prevents the development of these disorders
fibrosis ([9]; pretreatment): virtually absent
pulmonary pressure ([9]; pretreatment): nearly normalized
